Laboratory results: patent US20140230081A1, “POLYNUCLEOTIDE, POLYPEPTIDE, ANIMAL MODEL AND METHOD FOR THE DEVELOPMENT OF COMPLEMENT SYSTEM MODULATORS” (BAYER INTELLECTUAL PROPERTY GMBH, priority 2011, published 2014)
Where “and” joins values, the source holds several entries; their conditions need not be identical. Equal entries are not always repeated. Where two headings read alike, the source gives them in different places.

Tests used:
complement activation [1] = conditions: cited from earlier work
[2] = test system: porcine-to-human xenograft; conditions: perfused with human blood; cited from earlier work
complement activation [3] = conditions: cited from earlier work; remark: listed apart in the source
IL10 expression = test: CLP model in hamster, IL10 expression in tissues (TaqMan RT-PCR); type: in vivo, Syrian Hamster; conditions: CLP+0.5 mg/kg, CLP+2.5 mg/kg and CLP+Alzet vs. CLP+vehicle, dose dependently
Procedure: (§1) Hamster tissues were pulverized by grinding with liquid nitrogen. Total RNA was extracted, DNase I digestion was performed to remove residual genomic DNA and the RNA were reverse transcribed using random hexamer primers. Quantitative TaqMan RT-PCR analysis was performed using the Applied Biosystems PRISM 7900 sequence detection system. The thermal protocol was set to 2 min at 50° C., followed by 10 min at 95° C. and by 40 cycles of 15 s at 95° C. and 1 min at 60° C. Results were normalized to L32 controls, and relative expression was calculated according to the following formula: relative expression=2̂(15−(CT(probe)−CT(L32))). The parameter CT is defined as the cycle number at which the amplification plot passes a fixed threshold above baseline.
(§2) Midline incision was made in the Linea Alba of the peritoneal cavity and the cecum was exposed. 50% of the cecum was tied off by placing a tight ligature around the cecum. For the CLP model two puncture wounds were made with an 18-gauge needle into the cecum and small amounts of cecal contents were expressed through the wounds, situs was flushed with 0.5 mL sterile saline. Finally, the cecum was replaced into the peritoneal cavity and the laparotomy site was closed. The sham group underwent abdominal surgery; the cecum was exposed and replaced without ligation or puncture of the cecum. Situs was flushed with 0.5 mL sterile saline and the laparotomy site was closed.
C5aR Antagonist was dissolved in DMSO and diluted with sterile saline solution. The final solution contained 5% DMSO. […]
(§3) Total RNA was isolated from hamster tissues with the Trizol-Reagent protocol according to the manufacturer's specifications (Invitrogen; USA). […] For relative quantitation of the mRNA distribution of IL10, IL6 and IL1b, total RNA from each sample was first reverse transcribed. […] For relative quantitation of the distribution of IL10, IL6 or IL1b mRNA the Applied Biosystems PRISM 7900 sequence detection system was used according to the manufacturer's specifications and protocols. PCR reactions were set up to quantitate IL 10, IL6 or IL1b and the housekeeping gene L32. […]

IL6 expression = test: CLP model in hamster, IL6 expression in tissues (TaqMan RT-PCR); type: in vivo, Syrian Hamster; conditions: CLP+0.5 mg/kg, CLP+2.5 mg/kg and CLP+Alzet vs. CLP+vehicle, dose dependently
Procedure: as §1, with “baseline. […]” for “baseline.”
as §3

IL1b expression = test: CLP model in hamster, IL1b expression in tissues (TaqMan RT-PCR); type: in vivo, Syrian Hamster; conditions: CLP+0.5 mg/kg, CLP+2.5 mg/kg and CLP+Alzet vs. CLP+vehicle; dose dependently; FIG. 11
Procedure: as §1, with “baseline. […]” for “baseline.”
as §3

white blood cell counts = test: CLP model in hamster, hemogram (white blood cell counts of EDTA whole blood); type: in vivo, Syrian Hamster; conditions: CLP+0.5 mg/kg, CLP+2.5 mg/kg and CLP+Alzet compared to CLP+vehicle; FIG. 24
Procedure: Blood samples were obtained under light Isoflurane anesthesia from the cavernous sinus with a capillary at different time points/final exsanguination by cannulation of the carotid artery after 24 hr to allow measurements of differential blood counts. Blood samples for basal blood cell counts were collected from the cavernous sinus one week before study begin. Blood was collected into EDTA tubes and blood cell counts were performed on an automated cell counter.
as §2
C5aR Antagonist was dissolved in DMSO and diluted with sterile saline solution. The final solution contained 5% DMSO. […] The study medication was given s.c. 30 min before and 2 h after CLP surgery. […]

hamster C5aR1 [4] = test: Receptor activation of hamster C5aR1, reduction by antagonist; type: cell-based; conditions: activated by human C5a ligand
C5aR [5] = conditions: cynomolgus monkey neutrophils; cited from earlier work
C5aR [6] = conditions: gerbil neutrophils; cited from earlier work
[7] = test system: complement-mediated tissue injury; conditions: models of ischemia-reperfusion and animal models of human acute and chronic inflammatory diseases; cited from earlier work
[8] = in vivo; cited from earlier work
hamster C5aR1 [9] = test: C5aR1 signalling via Calcium release (luminescence) in CHOmtCly_hamster-C5aR1/Galpha16 cells; type: cell-based; conditions: peptide at 7 μM; three CHOmtCly_hamster-C5aR1/Galpha16 cell lines, respectively; measured for 60 seconds; listed as Bachem peptide 83462
Procedure: CHO K1 cell lines expressing mitochondrial Clytin (CHOmtCly) were co-transfected with the expression vector pcDNA3 harbouring the cDNA of hamster C5aR1 und pcDNA3-Galpha16 to allow the measurement of C5aR1 signalling via Calcium release (generated cells are named CHOmtCly_hamster-C5aR1/Galpha16). Control cells (CHOmtCly_pcDNA3) were generated by transfection of CHOmtCly cells with a corresponding amount of empty pcDNA3 vector only. In brief, 10^6 cells were transfected with 2 μg DNA by use of the Nucleofector (Amaxxa) program U-27. Transfected cells were seeded in 384-well MTP with a density of 250 cells per well. After 24 h incubation at 37° C. selection media containing a final concentration of 1 mg/ml G418 was added. After one week of selection plates were duplicated and tested for C5aR1 signalling. Cells were loaded with Coelenterazine for 3 h, than buffer or the C-terminal peptide of human C5a (Bachem H3462) was added at a final concentration of 7 μM. Luminescence (RLU) was measured for 60 seconds.
For activity measurement, three CHOmtCly_hamster-C5aR1/Galpha16 cell lines and three CHOmtCly cDNA3 cell lines were analyzed, respectively.
Target sequence in this assay (as listed by the source): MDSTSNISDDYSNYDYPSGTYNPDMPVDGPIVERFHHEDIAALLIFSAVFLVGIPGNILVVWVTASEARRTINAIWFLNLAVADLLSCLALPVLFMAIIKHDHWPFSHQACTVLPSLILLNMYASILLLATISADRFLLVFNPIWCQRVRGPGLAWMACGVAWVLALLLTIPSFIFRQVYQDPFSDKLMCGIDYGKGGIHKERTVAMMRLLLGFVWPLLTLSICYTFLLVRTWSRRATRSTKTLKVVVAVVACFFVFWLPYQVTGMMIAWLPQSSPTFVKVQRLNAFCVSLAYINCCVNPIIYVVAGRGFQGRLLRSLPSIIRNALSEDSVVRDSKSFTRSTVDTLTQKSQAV
Target sequence in this assay (P30679 whole entry partner): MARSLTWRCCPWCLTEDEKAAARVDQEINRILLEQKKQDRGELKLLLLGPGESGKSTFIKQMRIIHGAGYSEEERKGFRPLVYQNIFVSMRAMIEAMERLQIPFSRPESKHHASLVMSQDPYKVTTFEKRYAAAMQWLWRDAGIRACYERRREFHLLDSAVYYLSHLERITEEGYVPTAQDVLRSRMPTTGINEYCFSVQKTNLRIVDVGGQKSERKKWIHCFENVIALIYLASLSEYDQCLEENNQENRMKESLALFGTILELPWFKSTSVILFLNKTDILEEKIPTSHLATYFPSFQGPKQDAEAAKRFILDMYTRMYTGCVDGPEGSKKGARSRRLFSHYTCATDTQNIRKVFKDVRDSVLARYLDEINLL

[10] = test system: classical complement pathway; conditions: cited from earlier work
[11] = molecular target: hamster C5aR1 polypeptide (hamster); test: cell-based or functional assay
Sequence of hamster C5aR1 polypeptide (hamster) (chain, as listed by the source limits assumed): as the sequence (as listed by the source) above

CC[C@H](C)[C@H](N)C(=O)N[C@H]1CSSC[C@@H](C(=O)N[C@H](C(N)=O)[C@@H](C)O)NC(=O)[C@H](CCCN=C(N)N)NC(=O)[C@H](Cc2cnc[nH]2)NC(=O)[C@H](Cc2cnc[nH]2)NC(=O)CNC(=O)[C@H](Cc2c[nH]c3ccccc23)NC(=O)[C@H](CC(=O)O)NC(=O)[C@H](CCC(N)=O)NC(=O)[C@H](C(C)C)NC(=O)[C@H](C(C)C)NC1=O [Compstatin]
complement activation in human serum (complement activation [1]): inhibit | lifetime of a porcine-to-human xenograft [2]: prolongs | side effects (complement activation [3]; in vivo): without significant side effects | heparine and protamine-induced complement activation (complement activation [3]; primates): inhibit

COc1ccc2c(c1)C(C(=O)N(Cc1ccc(N(C)C)cc1)c1ccc(C(C)C)cc1)CCC2.Cl (stereo not drawn) [W-54011]
expression of IL10 in kidney tissue (IL10 expression; FIG. 6): decreased | expression of IL10 in LV (left ventricle) tissue (IL10 expression; FIG. 7): decreased | expression of IL10 in lung tissue (IL10 expression; FIG. 8): decreased | expression of IL6 in LV (left ventricle) tissue (IL6 expression; FIG. 9): decreased | expression of IL6 in lung tissue (IL6 expression; FIG. 10): decreased | expression of IL1b in LV (left ventricle) tissue (IL1b expression): decreased | WBC (white blood cell counts) (white blood cell counts): higher | receptor activation of hamster C5aR1 (hamster C5aR1 [4]): can be reduced | inhibition of C5a-mediated responses (C5aR [5]): inhibits | inhibition of C5a-mediated responses (C5aR [6]): inhibits

sCR1: soluble version of recombinant human CR1 lacking the transmembrane and cytoplasmic domains
complement-mediated tissue injury [7]: reduce | half-life in circulation [8]: short

H3462: C-terminal peptide of human C5a (Bachem H3462) (ISHKDMQLGR)
Luminescence (RLU) on stimulation (hamster C5aR1 [9]): 247943 RLU and 243143 RLU and 203151 RLU

CEGPFGPRHDLTFCW [2J]
IC50 [10]: 2 to 6 µM

C-terminal peptide of human C5a (Bachem H3462) (from UniProt P01031 742-751)
Luminescence (RLU), calcium release via mitochondrial Clytin, peptide at 7 µM, measured for 60 seconds; cell line 1 of 3 [11]: 248000 RLU | Luminescence (RLU), calcium release via mitochondrial Clytin, peptide at 7 µM, measured for 60 seconds; cell line 2 of 3 [11]: 243000 RLU | Luminescence (RLU), calcium release via mitochondrial Clytin, peptide at 7 µM, measured for 60 seconds; cell line 3 of 3 [11]: 203000 RLU
